Data: US5516908A, “1,3-dihydro-2H-imidazo-[4,5-β]quinolin-2-one derivatives and intermediates” (Janssen Pharmaceutica N.V., priority 1995, dated 1996)

What was measured:
Format in all cases: biochemical
Canine heart PDE III = biological target: T1, Canine heart PDE III (Canis lupus familiaris, UniProt A0A8I3NYE0); test: Inhibition of Phosphodiesterase Type III (PDE III), canine heart; details: 1.2 μM 3H-cAMP, pH 7.1, 10 min at 37° C.
T1 construct: canine and human heart phosphodiesterase PDE III; from tissue; host or cells: canine heart (muscle)
T1 sequence (A0A8I3NYE0 1-1135): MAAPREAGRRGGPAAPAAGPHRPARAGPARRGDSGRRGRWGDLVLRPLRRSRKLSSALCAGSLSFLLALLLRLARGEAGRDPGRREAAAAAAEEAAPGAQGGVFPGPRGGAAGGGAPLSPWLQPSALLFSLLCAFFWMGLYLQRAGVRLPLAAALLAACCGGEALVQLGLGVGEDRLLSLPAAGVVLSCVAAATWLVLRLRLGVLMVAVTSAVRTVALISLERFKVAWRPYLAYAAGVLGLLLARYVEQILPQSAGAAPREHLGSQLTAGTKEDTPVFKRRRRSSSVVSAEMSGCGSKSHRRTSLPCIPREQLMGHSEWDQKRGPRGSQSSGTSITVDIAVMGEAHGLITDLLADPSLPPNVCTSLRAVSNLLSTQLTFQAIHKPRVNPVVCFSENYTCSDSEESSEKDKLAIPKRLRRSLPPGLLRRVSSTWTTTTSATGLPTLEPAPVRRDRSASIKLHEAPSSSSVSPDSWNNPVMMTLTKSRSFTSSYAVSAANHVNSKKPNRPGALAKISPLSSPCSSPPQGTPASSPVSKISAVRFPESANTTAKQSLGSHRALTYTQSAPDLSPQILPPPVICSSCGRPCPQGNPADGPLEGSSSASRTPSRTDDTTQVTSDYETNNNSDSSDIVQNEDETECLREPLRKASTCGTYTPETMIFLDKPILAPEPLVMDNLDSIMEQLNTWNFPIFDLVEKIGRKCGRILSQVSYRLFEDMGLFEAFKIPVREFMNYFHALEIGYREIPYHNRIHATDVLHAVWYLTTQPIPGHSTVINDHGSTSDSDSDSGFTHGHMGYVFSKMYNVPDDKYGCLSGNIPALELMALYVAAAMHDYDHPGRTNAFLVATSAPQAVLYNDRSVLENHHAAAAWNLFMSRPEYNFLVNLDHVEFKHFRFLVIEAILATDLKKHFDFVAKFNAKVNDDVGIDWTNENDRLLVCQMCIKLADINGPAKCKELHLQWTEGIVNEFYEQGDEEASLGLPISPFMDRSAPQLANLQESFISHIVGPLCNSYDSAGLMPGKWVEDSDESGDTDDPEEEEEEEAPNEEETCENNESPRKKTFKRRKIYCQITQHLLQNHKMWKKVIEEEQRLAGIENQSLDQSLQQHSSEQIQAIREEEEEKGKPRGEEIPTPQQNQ
Description: (§1) The alleviating and/or curing effect of the instant compounds on allergic and atopic diseases was assessed by an in vitro assay system to detect an inhibiting effect on the phosphodiesterase type III in human and canine muscle cells and a similar inhibiting effect on the phosphodiesterase type IV in human mononuclear lymphocytes.
(§2) The incubation mixture (pH 7.1) (200 μl) contained 40 mM Tris, 3.75 mM 2-mercaptoethanol, 6 mM magnesium chloride, 1.2 μM ^3 H-cAMP (310 mCi/mmole) and the phosphodiesterase type III, the amount depending on the enzymatic activity.
(§3) When the effect of different compounds on phosphodiesterase activity was tested, the medium without cAMP was incubated with the compound(s) or its carrier (DMSO-1% final concentration) for 5 min. The enzymatic reaction was started by addition of ^3 H-cAMP and stopped 10 min later after transferring the tubes in a waterbath at 100° C. for 40 sec. After cooling to room temperature, alkaline phosphatase (0.25 μg/ml) was added and the mixture was left at room temperature for 20 min. The mixture was subsequently applied to a 1 ml DEAE-Sephadex A-25 column (pasteur pipet) and washed twice with 3 ml 20 mM Tris-HCl at pH 7.4. The ^3 H-labelled reaction products in the eluate were quantified by liquid scintillation counting.
(§4) The inhibiting effect of the present compounds on canine and human heart phosphodiesterase PDE III was measured at different concentrations of the instant compounds. The IC50 values were calculated graphically from the thus obtained inhibition values.

Human heart PDE III = biological target: T2, Human heart PDE III (Homo sapiens, UniProt Q14432); test: Inhibition of Phosphodiesterase Type III (PDE III), human heart; details: 1.2 μM 3H-cAMP, pH 7.1, 10 min at 37° C.
T2 construct: canine and human heart phosphodiesterase PDE III; from tissue; host or cells: human heart (muscle)
Description: as §1, §2, §3, §4

Human MNL PDE IV = test: Inhibition of Phosphodiesterase Type IV From Human Mononuclear Lymphocytes (MNL); details: human mononuclear lymphocyte PDE IV; in presence of 10^-4 M cGMP; 1.2 μM 3H-cAMP, pH 7.1, 10 min at 37° C.
Description: as §1
Human blood was obtained from donors that were documented before to suffer from allergic or atopic disease. 35 ml of blood was obtained from the […] veins by venipuncture and collected in 5 ml 100 mM K2 EDTA pH 7.1. 4 ml of 0.6% dextran in saline was added and the mixture was left at room temperature for 30 min. The red blood cell free supernatant was collected, layered gently on a Lymphoprep solution and centrifuged at 750 g for 15 min at 18° C. The interfase was collected, diluted with a buffer containing […], 50 mM KCl and 100 mM HEPES at pH 7.4, and centrifuged at 900 g for 10 min at 10° C. The resulting pellet was resuspended in the same buffer.
The suspension of MNLs was adjusted to 1% Triton X100 and 0.3% Brij35 and frozen in liquid N2. After 3 freeze-thawn cycles, the suspension was homogenized at 4° C. in a Polytron PT3000 (Kinematica AG) homogenizer (PT-DA 3020/2 TS) at 8000 rpm for 5×10 sec, followed by sonication at 4° C. in a Branson sonifier 250 at a frequency output of 20000 Hz, working output 40 W for 10×30 sec. The homogenate was centrifuged at 10000 g for 10 min. The resulting supernatant was used as source for PDE IV activity. The incubation mixture (pH 7.1) (200 μl) contained 40 mM Tris, 3.75 mM 2-mercapto-ethanol, 6 mM magnesium chloride, 1.2 μM ^3 H-cAMP (310 mCi/mmole) and the phosphodiesterase type IV, the amount depending on the enzymatic activity. […] To block contaminating PDE III activity, PDE IV activity was measured in the presence of 10^-4 M cGMP.
as §3
The inhibiting effect of the present compounds on human mononuclear lymphocyte phosphodiesterase PDE IV was measured at different concentrations of the instant compounds. The IC50 values were calculated graphically from the thus obtained inhibition values.

T2 sequence (Q14432 whole entry): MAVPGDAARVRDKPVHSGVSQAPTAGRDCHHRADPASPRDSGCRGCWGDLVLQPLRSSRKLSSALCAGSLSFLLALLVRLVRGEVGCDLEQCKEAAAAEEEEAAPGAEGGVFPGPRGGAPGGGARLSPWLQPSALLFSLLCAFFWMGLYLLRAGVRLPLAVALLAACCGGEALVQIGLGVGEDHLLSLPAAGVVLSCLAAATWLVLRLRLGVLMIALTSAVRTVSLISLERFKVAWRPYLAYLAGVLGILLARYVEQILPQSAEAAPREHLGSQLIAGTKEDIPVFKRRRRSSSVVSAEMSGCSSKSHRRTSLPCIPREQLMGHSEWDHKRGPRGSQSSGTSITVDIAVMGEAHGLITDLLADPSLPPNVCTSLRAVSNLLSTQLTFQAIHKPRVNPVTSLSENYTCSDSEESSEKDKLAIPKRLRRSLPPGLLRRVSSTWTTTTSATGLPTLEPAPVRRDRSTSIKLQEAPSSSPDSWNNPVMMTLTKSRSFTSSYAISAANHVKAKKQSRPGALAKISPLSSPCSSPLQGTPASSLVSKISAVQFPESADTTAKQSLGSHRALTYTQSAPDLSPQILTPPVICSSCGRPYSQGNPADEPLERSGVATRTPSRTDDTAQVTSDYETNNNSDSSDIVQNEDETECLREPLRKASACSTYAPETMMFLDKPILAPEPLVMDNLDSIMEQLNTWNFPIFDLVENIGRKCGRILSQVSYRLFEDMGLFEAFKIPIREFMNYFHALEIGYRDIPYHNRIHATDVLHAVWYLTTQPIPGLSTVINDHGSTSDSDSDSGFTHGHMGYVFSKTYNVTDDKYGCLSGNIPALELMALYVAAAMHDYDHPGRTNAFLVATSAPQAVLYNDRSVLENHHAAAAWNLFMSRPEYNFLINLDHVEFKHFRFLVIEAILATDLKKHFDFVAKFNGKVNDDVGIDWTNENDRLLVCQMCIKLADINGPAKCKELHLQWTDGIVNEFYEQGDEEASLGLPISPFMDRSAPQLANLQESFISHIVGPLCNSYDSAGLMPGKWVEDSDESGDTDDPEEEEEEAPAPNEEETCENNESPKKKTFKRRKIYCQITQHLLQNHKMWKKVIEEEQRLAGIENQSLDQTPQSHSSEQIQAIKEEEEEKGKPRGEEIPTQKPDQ

| SMILES | IC50 (Canine heart PDE III) [nM] | IC50 (Human heart PDE III) [nM] | IC50 (Human MNL PDE IV) [nM] |
| --- | --- | --- | --- |
| O=C(c1ccccc1)c1ccc2nc3[nH]c(=O)[nH]c3cc2c1 [Compound 1, 7-benzoyl-1,3-dihydro-2H-imidazo[4,5-b]quinolin-2-one] | 10 | 42 | 5800 |
| COc1ccc(C(=O)c2ccc3nc4[nH]c(=O)[nH]c4cc3c2)cc1OC [Compound 2, 7-(3,4-dimethoxybenzoyl)-1,3-dihydro-2H-imidazo[4,5-b]quinolin-2-one] | 33 | 86 | 4500 |
| O=C(c1ccc(F)cc1)c1ccc2nc3[nH]c(=O)[nH]c3cc2c1 [Compound 3, 7-(4-fluorobenzoyl)-1,3-dihydro-2H-imidazo[4,5-b]quinolin-2-one] | 37 | 36 | – |
| Cc1ccc(C(=O)c2ccc3nc4[nH]c(=O)[nH]c4cc3c2)cc1 [Compound 4, 1,3-dihydro-7-(4-methylbenzoyl)-2H-imidazo[4,5-b]quinolin-2-one] | 26 | 18 | – |
| O=C(c1cccnc1)c1ccc2nc3[nH]c(=O)[nH]c3cc2c1 [Compound 5, 1,3-dihydro-7-(3-pyridinylcarbonyl-2H-imidazo[4,5-b]quinolin-2-one monohydrate] | 42 | 120 | – |
| CCOC(=O)CCCCO/N=C(\c1cccnc1)c1ccc2nc3[nH]c(=O)[nH]c3cc2c1 [Compound 6] | 30 | 44 | 1700 |
| CN(C(=O)CO/N=C(/c1ccccc1)c1ccc2nc3[nH]c(=O)[nH]c3cc2c1)C1CCCCC1 [Compound 7] | 32 | 27 | 2600 |
| COc1cccc(C(=O)c2ccc3nc4[nH]c(=O)[nH]c4cc3c2)c1 [Compound 9] | 21 | 18 | – |
| CN(C(=O)CO/N=C(\c1ccccc1)c1ccc2nc3[nH]c(=O)[nH]c3cc2c1)C1CCCCC1 [Compound 10, (E)-N-cyclohexyl-2-[[[(2,3-dihydro-2-oxo-1H-imidazo{4,5-b]quinolin-7-yl)phenylmethylene]amino]oxy]-N-methylacetamide] | 14 | 17 | 490 |
| CCOC(=O)CO/N=C/c1ccc2nc3[nH]c(=O)[nH]c3cc2c1 [Compound 11] | 26 | 39 | – |
| CCOC(=O)CCCCO/N=C(/c1cccnc1)c1ccc2nc3[nH]c(=O)[nH]c3cc2c1 [Compound 12] | 29 | 33 | 3600 |
| O=C(O)CCCCO/N=C(\c1cccnc1)c1ccc2nc3[nH]c(=O)[nH]c3cc2c1 [Compound 13, (Z)-5-[[[(2,3-dihydro-2-oxo-1H-imidazo[4,5-b]-quinolin-7-yl)(3-pyridinyl)methylene]amino]oxy]pentanoic acid] | 84 | 49 | – |
| O=C(O)CCCCON=C(c1cccnc1)c1ccc2nc3[nH]c(=O)[nH]c3cc2c1 [Compound 14, (E+Z)-5-[[[(2,3-dihydro-2-oxo-1H-imidazo[4,5-b]quinolin-7-yl)(3-pyridinyl)methylene]amino]oxy]pentanoic acid monohydrate] | 100 | 100 | – |
